# Measured values: ChEMBL document CHEMBL5537197, “Discovery of Novel Coumarin-quinolinium Derivatives as Pan-KRAS Translation Inhibitors by Targeting 5'-UTR RNA G-Quadruplexes” (J Med Chem, 2024)
# The source made the active and inactive calls. The calls are words filed in the database; no cut-off is given here.
# Columns and labels:
# PANC-1 = assay: Cytotoxicity against human PANC-1 cells harboring KRAS G12D mutant assessed as cell growth inhibition incubated for 24 hrs by MTT assay; format: functional, cell-based; settings: PANC-1, 24 h
# [1] = Cytotoxicity against human PANC-1 cells […] assessed as cell growth inhibition incubated for 24 hrs by MTT assay; format: functional, cell-based; settings: PANC-1, 24 h
# [2] = target: GTPase KRas (Homo sapiens) (UniProt P01116); assay: Inhibition of KRAS in human MIA PaCa-2 cells at 2.5 uM incubated for 24 hrs by Western blot analysis; format: cell-based
# Chain of GTPase KRas (Homo sapiens) (P01116 whole entry, looked up): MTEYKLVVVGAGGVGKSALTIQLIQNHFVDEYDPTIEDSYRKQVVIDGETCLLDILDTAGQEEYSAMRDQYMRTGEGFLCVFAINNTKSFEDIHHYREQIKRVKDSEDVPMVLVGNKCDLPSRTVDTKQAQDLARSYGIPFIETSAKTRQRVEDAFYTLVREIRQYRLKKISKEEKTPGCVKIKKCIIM
# HPAF-II = assay: Cytotoxicity against human HPAF-II cells harboring KRAS G12D mutant assessed as cell growth inhibition incubated for 24 hrs by MTT assay; format: functional, cell-based
# SW-620 = assay: Cytotoxicity against human SW620 cells harboring KRAS G12V mutant assessed as cell growth inhibition incubated for 24 hrs by MTT assay; format: functional, cell-based; settings: SW-620, 24 h
# NCI-H358 = assay: Cytotoxicity against human NCI-H358 cells harboring KRAS G12C mutant assessed as cell growth inhibition incubated for 24 hrs by MTT assay; format: functional, cell-based; settings: NCI-H358, 24 h
# U-87 MG = assay: Cytotoxicity against human U-87 MG cells harboring wild-type KRAS assessed as cell growth inhibition incubated for 24 hrs by MTT assay; format: functional, cell-based, U-87MG ATCC
# [3] = tested on: GTPase KRas (Homo sapiens), P01116 [G12C]; assay: Inhibition of KRAS G12C mutant in human MIA PaCa-2 cells incubated for 24 hrs by Western blot analysis; format: cell-based; settings: dose <= 5.0 µM
# Chain of GTPase KRas (Homo sapiens), P01116 [G12C] (P01116 whole entry G12C): as the sequence (P01116 whole entry, looked up) above, with G12C counted along it
# [4] = tested on: GTPase KRas (Homo sapiens), P01116 [G12C]; assay: Inhibition of KRAS G12C mutant in human MIA PaCa-2 cells at 2.5 uM by Western blot analysis; format: cell-based; settings: time <= 48.0 hrs, TDE = time-dependent effect
# [5] = tested on: GTPase KRas (Homo sapiens), P01116 [G12C]; assay: Inhibition of KRAS G12C mutant in human NCI-H358 cells at 2.5 uM by Western blot analysis; format: cell-based; settings: time <= 48.0 hrs, TDE = time-dependent effect
# Quadruplex DNA [6] = assay: Binding affinity to KRAS utr-1 G-Quadruplex (unknown origin) assessed as dissociation constant by fluorescence spectroscopy; format: nucleic-acid assay
# Quadruplex DNA [7] = assay: Binding affinity to KRAS utr-z G-Quadruplex (unknown origin) assessed as dissociation constant by fluorescence spectroscopy; format: nucleic-acid assay
# Quadruplex DNA [8] = assay: Binding affinity to SS12 G-Quadruplex (unknown origin) assessed as dissociation constant by fluorescence spectroscopy; format: nucleic-acid assay
# Quadruplex DNA [9] = assay: Binding affinity to HP12 G-Quadruplex (unknown origin) assessed as dissociation constant by fluorescence spectroscopy; format: nucleic-acid assay
# Quadruplex RNA [10] = assay: Binding affinity to NRAS RNA G-Quadruplex (unknown origin) assessed as melting temperature at 25 uM at 25 to 95 degreeC by CD spectroscopy (reference value: 82.2 degreeC); format: nucleic-acid assay
# Quadruplex DNA [11] = assay: Binding affinity to TERRA G-Quadruplex (unknown origin) assessed as melting temperature at 25 uM at 25 to 95 degreeC by CD spectroscopy (reference value: 84.2 degreeC); format: nucleic-acid assay
# Quadruplex RNA [12] = assay: Inhibition of KRAS RNA G-Quadruplex (unknown origin) translation transfected in HEK293T cells assessed as decrease in relative luciferase activity upto 5 uM incubated for 24 hrs by Dual-luciferase reporter assay; format: cell-based
# [13] = target: GTPase KRas (Homo sapiens) (UniProt P01116); assay: Inhibition of KRAS in human MIA PaCa-2 cells assessed as decrease in MEK phosphorylation incubated for 24 hrs by Western blot analysis; format: cell-based; settings: dose 1.25-5 µM
# [14] = target: GTPase KRas (Homo sapiens) (UniProt P01116); assay: Inhibition of KRAS in human MIA PaCa-2 cells assessed as decrease in ERK phosphorylation incubated for 24 hrs by Western blot analysis; format: cell-based; settings: dose 1.25-5 µM
# [15] = target: GTPase KRas (Homo sapiens) (UniProt P01116); assay: Inhibition of KRAS in human MIA PaCa-2 cells assessed as decrease in AKT phosphorylation incubated for 24 hrs by Western blot analysis; format: cell-based; settings: dose 1.25-5 µM
# [16] = target: GTPase KRas (Homo sapiens) (UniProt P01116); assay: Inhibition of KRAS in human MIA PaCa-2 cells assessed as decrease in mTOR phosphorylation incubated for 24 hrs by Western blot analysis; format: cell-based; settings: dose 1.25-5 µM
# MIA PaCa-2 [17] = assay: Antitumor activity against human MIA PaCa-2 cells xenografted in BALB/C-nu/nu mouse model assessed as tumor growth inhibition at 2.5 mg/kg,ip everyday for 18 days relative to control; format: functional; settings: MIA PaCa-2, 432 h, time 18 day, read-out: TGI
# MIA PaCa-2 [18] = assay: Antitumor activity against human MIA PaCa-2 cells xenografted in BALB/C-nu/nu mouse model assessed as tumor growth inhibition at 5 mg/kg,ip everyday for 18 days relative to control; format: functional; settings: MIA PaCa-2, 432 h, time 18 day, read-out: TGI
# [19] = Toxicity in BALB/C-nu/nu mouse model xenografted with human MIA PaCa-2 cells assessed as body weight change at 2.5 to 5 mg/kg,ip everyday for 18 days; format: organism-based; settings: in vivo, 432 h, dose 2.5-5 mg/kg, time 18 day
# [20] = Toxicity in BALB/C-nu/nu mouse model xenografted with human MIA PaCa-2 cells assessed as toxic sigs in viscera at 2.5 to 5 mg/kg,ip everyday for 18 days; format: organism-based; settings: in vivo, 432 h, dose 2.5-5 mg/kg, time 18 day
smiles,measurement,setting,value
CCN(CC)c1ccc2cc(/C=C/c3ccc4cc(F)c(NCCN5CCCC5)cc4[n+]3C)c(=O)oc2c1.[I-],IC50,PANC-1,5.6 µM
same,IC50,[1],> 40 µM
same,inhibition,[2],Active
same,IC50,HPAF-II,5.4 µM
same,IC50,SW-620,5.1 µM
same,IC50,NCI-H358,4.8 µM
same,IC50,U-87 MG,> 40 µM
same,inhibition,[3],Dose-Dependent Effect
same,inhibition,[4],Tde
same,inhibition,[5],Tde
same,Kd,Quadruplex DNA [6],0.9 µM
same,Kd,Quadruplex DNA [7],2.3 µM
same,Kd,Quadruplex DNA [8],> 5 µM
same,Kd,Quadruplex DNA [9],> 5 µM
same,Tm,Quadruplex RNA [10],78.7 °C
same,Tm,Quadruplex DNA [11],81.2 °C
same,inhibition,Quadruplex RNA [12],Active
same,inhibition,[13],Dose-Dependent Effect
same,inhibition,[14],Dose-Dependent Effect
same,inhibition,[15],Dose-Dependent Effect
same,inhibition,[16],Dose-Dependent Effect
same,inhibition in vivo at 2.5 mg/kg,MIA PaCa-2 [17],62%
same,inhibition in vivo at 5 mg/kg,MIA PaCa-2 [18],70.3%
same,Activity,[19],Non-Toxic
same,Activity,[20],Non-Toxic
